Measurements published in patent US20170119020A1, “METHOD OF FEEDING AN ANIMAL” (CARGILL, INCORPORATED, priority 2014, published 2017).

Legend:
Assay type in all cases: in vivo, chicken
[1] = system: Cobb 500FF breeder chickens; assay: Broiler breeder performance, partial replacement of vitamin E by PROVIOX 50 (Example 1)
Method: Two different breeder diets (Table 1) were tested in a randomized block design. Breeders received a standard control diet or a diet where 50% of the vitamin E was replaced by PROVIOX 50. The two diets were randomly distributed into six cages, resulting in three replicates per treatment with 28, 29, or 30 females and […] per replicate.
The experimental period lasted four weeks; the breeders received a lay start diet during the entire period according to the experimental design. Feed and water were restricted. Feed amount depended on body weight development. Water was provided for two hours a day, crops were checked regularly to ensure the correct amount of water was provided.
A total of 24 male and 173 female Cobb 500FF 20-week-breeder chickens were procured. The males and females were randomly assigned to six floor pens (four males per pen, 29 females in pens 1-3, 30 females in pen 4, and 28 females in pens 5 and 6). During the pre-trial period, all breeders received the control diet.
Throughout the trial, breeders were housed in broiler breeder floor pens ([…]) on litter (flax). Each pen was equipped with two bell drinkers adjustable in height. The feed for the females was supplied via two feeder bowls on the raised slatted floor. The feed for the males was supplied via a feeder trough on the other side of the pen.
Day length was set at 14 hours a day until peak production was reached (70%; day 15). After peak production was achieved, day length was set to 15 hours a day. Temperature and ventilation were computer controlled. The temperature was set at 20° C. for the entire experimental period.
Individual bird weights were recorded weekly from the start of the experiment. Feed amount provided was recorded on a daily basis. Egg production and egg quality data were recorded on a daily basis. Laying % was calculated as number of eggs produced per pen divided by the number of bird days of the experimental period. Egg mass production per pen per week was calculated as laying % (including second-class eggs) times average egg weight of the pen. Average egg weight was determined per pen once a week. Second-class eggs were divided into dirty eggs, broken eggs, shell-less eggs, double-yolk eggs, floor eggs and remaining second-class eggs. Mortality was checked every day; dead animals were not replaced during the experimental period.

[2] = system: eggs and hatched chickens of Cobb broiler breeders; assay: Hatchability, fertility and chick quality of eggs of Example 1 (Example 2)
Method: The eggs were stored based on breeder pen and storage day. Eggs were allocated to twelve trays and nine blocks, with each block representing a storage day. At E17, all eggs were candled and at E18, eggs were transferred from the incubator […] to […] baskets. […] (64.4° F.) and a relative humidity of 75%. At the start of the incubation period, the eggs were weighed and allocated into blocks, each block representing a storage day. Each block consisted of twelve experimental units, with each experimental unit indicating a group of ten eggs. Only intact eggs were included; cracked, dirty, or eggs with deformed shells were excluded from the experiment. The eggs were placed in a NatureForm NMC 2340 Incubator with automatic control of temperature and relative humidity. From E0 until E18, the eggs were placed in setter trolleys, which consist of two shelves with a capacity for thirteen trays each. Each tray has three flats of thirty eggs. During this period, the incubator start temperature was set to 37.5° C. and relative humidity to 54%. […] After the setter period (E0-E18), eggs were transferred to baskets in the […] based on the blocking structure in the setter. The eggs were placed into subdivisions of a hatching crate, per replicate, and following tray order per block. Each […] trolley has twelve baskets with a capacity for 180 eggs each. […] Egg weights were recorded per experimental unit at E0. At hatch (E21) the number of dead chickens, dead embryos and […] (internal and external) were recorded. Remaining non-hatched eggs were opened to determine age and cause of death. The number of hatched chickens was recorded per replicate, as well as average chick weight. Sex was determined by cloaca sexing, performed by a professional chicken-sexer. Hatchability was calculated as percentage of total and of fertile eggs (eggs which contained living embryos after E17). […] Only chickens with an average body weight, completely dry, showing active movement and with a good navel score were selected. […] Sample chickens were individually weighed and killed by cervical dislocation to measure remaining yolk-sac weights, yolk-free body mass (“YFBM”), chick length, and shank length of both shanks. Relative asymmetry was calculated according to the following formula: RA=(|L-R|/[(L+R)/2])×100.

Ross 308 male broilers = assay: Grow out of offspring (Example 6); details: 160 versus 80 ppm in breeder diet
[3] = breeders 26 through 30 weeks of age
[4] = eggs of 28-29 week breeders of Example 1

## Cc1c(C)c2c(c(C)c1O)CCC(C)(CCCC(C)CCCC(C)CCCC(C)C)O2 (racemic) [Vitamin E, DL-α-tocopherol]
[1]; [3]
  Egg Mass: 47.1 g/hen/day
  Egg Weight: 56.4 g
  First Class Eggs: 77.9%
  Second Choice Eggs: Broken Eggs: 1.6%
  Second Choice Eggs: Dirty Eggs: 0.7%
  Second Choice Eggs: Double Yolk Eggs: 1.3%
  Second Choice Eggs: Floor Eggs: 1.4%
  Second Choice Eggs: Remainder: 0.5%
  Second Choice Eggs: Shell Less Eggs: 0.1%
[1]; breeders 26 through 30 weeks of age, half of vitamin E replaced by PROVIOX 50
  Laying Percentage: 83.6%
[1]; in vivo
  BW 30 wk Females: 3.68 kg
  BW 30 wk Males: 4.19 kg
[1]; start of experiment
  BW 26 wk Females: 3.50 kg
  BW 26 wk Males: 3.91 kg
[2]; at hatch
  Chick Weight: 42.4 g
[2]; dissected chickens
  Chick Weight: 41.3 g
  Chick length: 17.9 cm
  Relative Assymetrie (shank): 1.59
  YFBM (yolk free body mass): 36.2 g
  Yolk weight: 4.92 g
[2]; dissected chickens, expressed as percentage of average egg weight
  Relative Chick Weight^1: 70.7%
[2]; dissected chickens, expressed as percentage of chick weight
  Relative Chick Weight^2: 11.8%
[2]; [4]
  Fertility: 92.6%
  Hatchability of fertile: 95.6%
  Hatchability of total: 88.6%
[2]; expressed as percentage of average egg weight
  Relative chick weight: 72.5%
Ross 308 male broilers
  feed to gain corrected for final bodyweight, worse for high versus low vitamin E treatment: 2.6%
  overall feed to gain, worse for high versus low vitamin E treatment: 1.4%
